Laboratory results: article PMC6283615, “Anilinoquinoline based inhibitors of trypanosomatid proliferation” (PLoS Neglected Tropical Diseases, 2018)
≈ marks a conversion by molar mass, not a printed value.

Legend:
LogD7.4 = type: physicochemical; conditions: pH 7.4
HepG2 cells = assay: Drug toxicity to HepG2 cells (MTT, 48 h); type: cell-based, human; conditions: tested concentration ranges based on compound solubility
Protocol: HepG2 cells were cultured in complete Minimal Essential Medium prepared by supplementing MEM with 0.19% sodium bicarbonate, 10% heat inactivated FBS, 2 mM L-glutamine, 0.1 mM MEM non-essential amino, 0.009 mg/mL insulin, 1.76 mg/mL bovine serum albumin, 20 units/mL penicillin–streptomycin, and 0.05 mg/mL gentamycin. HepG2 cells cultured in complete MEM were first washed with 1× Hank’s Balanced Salt Solution (Invitrogen #14175095), trypsinized using a 0.25% trypsin/EDTA solution, assessed for viability using trypan blue, and resuspended at 250,000 cells/mL. Using a Tecan EVO Freedom robot, 38.3 μL of cell suspension were added to each well of clear, cell culture-treated 384-well microtiter plates for a final concentration of 9570 liver cells per well, and plated cells were incubated overnight in 5% CO2 at 37°C. Drug plates were prepared with the Tecan EVO Freedom using sterile 96 well plates containing twelve duplicate 1.6-fold serial dilutions of each test compound suspended in DMSO. 4.25 μL of diluted test compound was then added to the 38.3 μL of media in each well providing a […] final dilution of compound. Compounds were tested from a range of 57 ng/mL to 10,000 ng/mL for all assays. Mefloquine was used as a plate control for all assays with a concentration ranging from 113 ng/mL to 20,000 ng/mL. After a 48 h incubation period, 8 μL of a 1.5 mg/mL solution of MTT diluted in complete MEM media was added to each well. All plates were subsequently incubated in the dark for 1 h at room temperature. After incubation, the media and drugs in each well was removed by shaking the plate over sink, and the plates were left to dry in a fume hood for 15 mins. Next, 30 μL of isopropanol acidified by addition of HCl at a final concentration of 0.36% was added to dissolve the formazan dye crystals created by reduction of MTT. Plates are put on a 3-D rotator for 15–30 mins. Absorbance was determined in all wells using a Tecan iControl 1.6 Infinite plate reader.

[1] = Rat hepatocyte intrinsic clearance; type: in vitro ADME
[2] = test system: T. b. brucei (strain 427); assay: T. b. brucei proliferation assay (PrestoBlue, 48 h); type: cell-based, Trypanosoma brucei brucei
Protocol: The assay was performed following a previously reported procedure. Briefly, in a 96-well plate, compounds were added in triplicates at 50 μM and in serial dilutions 1:2 in HMI-9 medium. To each well, 100 μL of 2.5×10^3 T. b. brucei (strain 427, received as a gift from Dr. C. C. Wang at UCSF) in HMI-9 medium was were added and incubated at 37°C, 5% CO2 for 48 h. Following incubation, 20 μL of PrestoBlue were added to each well and incubated for additional 4 h. Fluorescence was read at 530 nm excitation and 590 nm emission.

NIH/3T3 cells = assay: Drug toxicity to 3T3 cells (Alamar Blue, 96 h); type: cell-based
Protocol: In a 96-well plate, 5×10^4 NIH/3T3 (ATCC CRL-1658) cells (purchased from ATCC) in DMEM without phenol red supplemented with 2% FBS were added to each well. Cells were incubated for 2 h to allow for attachment. Compounds were added in triplicates at 200 μM and in serial dilutions 1:2 and incubated at 37°C, 5% CO2 for 96 h. […] Following incubation, 10 μL of Alamar Blue (ThermoFisher) were added to each well and cells incubated at 37°C, 5% CO2 for 4 h. Absorbance was read at 590–595 nm.

[3] = Human liver microsome intrinsic clearance; type: in vitro ADME
[4] = Human plasma protein binding; type: in vitro ADME
L. major amastigote = assay: L. major intracellular amastigote luciferase assay in RAW 264.7 macrophages; type: cell-based, Leishmania major; conditions: intracellular amastigotes in RAW 264.7 macrophages, 96 h
Protocol: Amastigote assays were performed using pLEXSY-hyg2-luciferase L. major transfected promastigotes and the murine RAW 264.7 macrophage cell line (ATCC TIB-71, Manassas, VA). Briefly, luciferase-expressing promastigotes of each Leishmania species were generated by adding a luciferase encoding region to the pLEXSY-hyg2 vector (Jena Biosciences, Germany) as described. One μg of the linearized pLEXSY-hyg2-luciferase vector were electroporated (480 V, 13 Ω, and 500 μF) into 4×10^7 Leishmania promastigotes. Selection for stable promastigote transfectants was carried out using hygromycin B (100 μg/mL). RAW 264.7 macrophages were maintained in growth medium (Dulbecco’s Modified Eagle’s Medium supplemented with heat-inactivated 10% FBS (Life Technologies)). Cells were harvested and resuspended in growth medium at 2.0×10^5 cells/mL, and 1×10^4 cells/well were dispensed (final volume 50 μL) in each well of a 384 well tissue-culture treated white plate using a EVO Freedom liquid handling system (Tecan, Durham, NC). Plates were incubated at 37°C in 5% CO2 for 24 h after which the culture medium was removed from each well using the EVO Freedom liquid handler. Metacyclic phase pLEXSY-hyg2-luciferase-Leishmania promastigotes (MOI = 1:10 L. major) were added to each assay plate well and allowed to infect the RAW 264.7 macrophages. After an overnight incubation, the growth medium was aspirated and each well was washed three times with 40 μL of fresh growth medium to remove non-internalized promastigotes. After the third wash, 69.2 μL of growth medium was added to each well. Compound dilutions (final concentration ranges 0.5–10,000 ng/mL) were generated and dispensed using the liquid handling system. Compound treated plates were incubated at 37°C in 5% CO2 for 96 h. After incubation, 7.5 μL of a luciferin solution (Caliper Life Science, Waltham, MA) diluted to 150 μg/mL was added to each well, and the plates were incubated for 30 min at 37°C in the dark. Data were captured using an Infinite M200 plate reader (Tecan). EC50s were generated for each concentration response test using GraphPad Prism software 6.0.

[5] = test system: T. cruzi amastigote (Tulahuen strain expressing β-galactosidase); assay: Intracellular T. cruzi assay in 3T3 cells (beta-galactosidase, 96 h); type: cell-based, Trypanosoma cruzi; conditions: intracellular in 3T3 cells, 96 h; read-out: T. cruzi amastigote EC50
Protocol: In a 96-well plate, 5×10^4 3T3 cells in DMEM without phenol red supplemented with 2% FBS were added to each well. Cells were incubated for 2 h to allow for attachment. Compounds were added in triplicates at 50 μM and in serial dilutions 1:2. To each well, 5×10^4 T. cruzi trypomastigotes (Tulahuen strain expressing β-galactosidase) were added and incubated at 37°C, 5% CO2 for 96 h. Following incubation, 50 μL of 500 μM chlorophenol Red-β-D-galactopyranoside (CPRG) in phosphate-buffered saline with 0.5% NP40 was added to each well and incubated at 37°C, 5% CO2 for 4 h. Absorbance was read at 590–595 nm.

Aqueous solubility = type: physicochemical

SMILES	LogD7.4 (LogD7.4)	HepG2 TC50 (HepG2 cells)	Rat Hepatocyte CLint [1]	EC50 [2]	3T3 TC50 (NIH/3T3 cells)	Human Liver Microsome CLint [3]	Human PPB [4]	EC50 (L. major amastigote)	EC50 [5]	solubility (Aqueous solubility)
Cn1cc(Nc2ccc3c(Nc4cnccn4)ccnc3c2)cn1 [NEU-2143]	1.9	29 µM	66 μL/min/10^6 cells	14 µM	> 50 µM	10 µL/min/mg	63%	28 µM	> 50 µM	–
c1cnc(Nc2ccnc3cc(Nc4nccs4)ccc23)cn1 [NEU-2141]	3.3	7.1 µM	270 μL/min/10^6 cells	4.4 µM	24 µM	68 µL/min/mg	91%	24 µM	22 µM	4 µM (≈ 1.28 µg/mL)
COc1ccc(Nc2ccnc3cc(-c4ccc(C)o4)ccc23)cc1Cl [NEU-2134]	4.8	42 µM	193 μL/min/10^6 cells	> 20 µM	> 100 µM	> 300 µL/min/mg	> 99%	27 µM	1.2 µM	0.1 µM (≈ 0.0365 µg/mL)
CN1CCN(c2ncc(-c3ccc4c(Nc5ccc6[nH]nnc6c5)ccnc4c3)cn2)CC1 [NEU-1957]	3.3	14 µM	51 μL/min/10^6 cells	21 µM	> 100 µM	120 µL/min/mg	91%	21 µM	> 50 µM	< 1 µM
Cc1n[nH]c(C)c1Nc1ccc2c(Nc3cnccn3)ccnc2c1 [NEU-2146]	1.8	40 µM	120 μL/min/10^6 cells	17 µM	> 100 µM	8 µL/min/mg	68%	27 µM	> 50 µM	–
Cn1ccnc1Nc1ccc2c(Nc3cnccn3)ccnc2c1 [NEU-2147]	1.7	42 µM	37 μL/min/10^6 cells	49 µM	> 100 µM	12 µL/min/mg	57%	5.5 µM	> 50 µM	160 µM (≈ 50.8 µg/mL)
Cc1nn(C)c(C)c1Nc1ccc2c(Nc3cnccn3)ccnc2c1 [NEU-2142]	2	39 µM	32 μL/min/10^6 cells	23 µM	> 100 µM	13 µL/min/mg	59%	26 µM	> 50 µM	570 µM (≈ 197 µg/mL)
Cn1cc(-c2ccc3c(Nc4cnccn4)ccnc3c2)cn1 [NEU-2129]	2.9	40 µM	290 μL/min/10^6 cells	3.3 µM	37 µM	25 µL/min/mg	–	33 µM	2.4 µM	4 µM (≈ 1.21 µg/mL)
COc1ccc(Nc2ccnc3cc(Nc4ccnc(N5CCN(C)CC5)n4)ccc23)cc1Cl [NEU-2093]	–	4.7 µM	2.3 μL/min/10^6 cells	0.34 µM	15 µM	45 µL/min/mg	–	4.6 µM	8.1 µM	–
Cc1cc(Nc2ccc3c(Nc4cnccn4)ccnc3c2)sn1 [NEU-2148]	3.5	36 µM	9 μL/min/10^6 cells	7.6 µM	> 100 µM	28 µL/min/mg	–	4.7 µM	> 50 µM	2 µM (≈ 0.669 µg/mL)
c1coc(-c2ccc3c(Nc4cnccn4)ccnc3c2)c1 [NEU-2131]	3.8	53 µM	–	4.8 µM	> 100 µM	160 µL/min/mg	98%	35 µM	4.7 µM	6 µM (≈ 1.73 µg/mL)
